The target in test [1] is Neuronal acetylcholine receptor; alpha3/beta4 (Homo sapiens, UniProt P30926+P32297). In words: Displacement of [3H]epibatidine from human alpha3beta4 nAChR in IMR32 cells. In kind it is cell-based, IMR-32. For orientation: Loss of bound radioactivity is the signal in a displacement assay; it reports binding, not function.
Test [2] deals with Neuronal acetylcholine receptor subunit alpha-7 (Rattus norvegicus, UniProt Q05941). In words: Displacement of [125I]alpha-bungarotoxin from rat alpha7 nAChR in GH4C1 cells. In kind it is cell-based, GH4-C1.
For test [3], the target named is Neuronal acetylcholine receptor; alpha4/beta2 (Rattus norvegicus, UniProt P09483+P12390). In words: Displacement of [3H]nicotine from alpha4beta2 nAChR in Sprague-Dawley rat brain membrane. In kind it is cell membranes.
Chain of Neuronal acetylcholine receptor; alpha4/beta2 (P09483 whole entry): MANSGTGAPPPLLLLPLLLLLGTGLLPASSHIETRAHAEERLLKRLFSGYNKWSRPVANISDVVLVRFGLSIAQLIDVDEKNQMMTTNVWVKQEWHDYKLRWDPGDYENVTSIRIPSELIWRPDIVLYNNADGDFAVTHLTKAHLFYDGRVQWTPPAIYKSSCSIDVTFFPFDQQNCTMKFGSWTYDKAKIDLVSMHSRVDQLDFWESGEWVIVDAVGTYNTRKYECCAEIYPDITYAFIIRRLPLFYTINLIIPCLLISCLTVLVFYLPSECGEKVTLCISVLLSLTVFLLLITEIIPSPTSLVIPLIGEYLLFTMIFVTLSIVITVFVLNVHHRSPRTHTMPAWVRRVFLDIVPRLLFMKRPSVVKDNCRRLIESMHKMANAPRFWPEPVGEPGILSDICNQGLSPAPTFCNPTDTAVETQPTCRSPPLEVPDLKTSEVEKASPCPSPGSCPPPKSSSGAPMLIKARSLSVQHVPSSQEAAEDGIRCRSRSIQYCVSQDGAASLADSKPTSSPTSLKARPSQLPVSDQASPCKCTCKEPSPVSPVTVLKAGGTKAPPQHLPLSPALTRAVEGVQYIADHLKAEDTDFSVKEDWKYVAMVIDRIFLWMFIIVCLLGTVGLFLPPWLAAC
Chain of Neuronal acetylcholine receptor; alpha4/beta2 (P12390 whole entry): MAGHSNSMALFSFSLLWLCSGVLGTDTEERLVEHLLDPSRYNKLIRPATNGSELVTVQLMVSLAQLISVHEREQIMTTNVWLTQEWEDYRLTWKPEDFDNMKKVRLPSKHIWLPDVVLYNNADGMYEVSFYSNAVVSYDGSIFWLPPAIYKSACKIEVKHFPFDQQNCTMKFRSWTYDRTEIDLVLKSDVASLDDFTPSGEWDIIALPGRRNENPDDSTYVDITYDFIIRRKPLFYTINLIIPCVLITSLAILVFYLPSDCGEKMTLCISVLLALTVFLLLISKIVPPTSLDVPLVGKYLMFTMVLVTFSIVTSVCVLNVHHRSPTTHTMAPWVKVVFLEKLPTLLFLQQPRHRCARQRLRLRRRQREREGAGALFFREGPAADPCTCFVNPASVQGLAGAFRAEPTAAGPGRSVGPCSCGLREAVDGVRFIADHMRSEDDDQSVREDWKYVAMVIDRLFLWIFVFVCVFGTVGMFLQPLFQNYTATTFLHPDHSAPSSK

Chain of Neuronal acetylcholine receptor subunit alpha-7 (Q05941 whole entry): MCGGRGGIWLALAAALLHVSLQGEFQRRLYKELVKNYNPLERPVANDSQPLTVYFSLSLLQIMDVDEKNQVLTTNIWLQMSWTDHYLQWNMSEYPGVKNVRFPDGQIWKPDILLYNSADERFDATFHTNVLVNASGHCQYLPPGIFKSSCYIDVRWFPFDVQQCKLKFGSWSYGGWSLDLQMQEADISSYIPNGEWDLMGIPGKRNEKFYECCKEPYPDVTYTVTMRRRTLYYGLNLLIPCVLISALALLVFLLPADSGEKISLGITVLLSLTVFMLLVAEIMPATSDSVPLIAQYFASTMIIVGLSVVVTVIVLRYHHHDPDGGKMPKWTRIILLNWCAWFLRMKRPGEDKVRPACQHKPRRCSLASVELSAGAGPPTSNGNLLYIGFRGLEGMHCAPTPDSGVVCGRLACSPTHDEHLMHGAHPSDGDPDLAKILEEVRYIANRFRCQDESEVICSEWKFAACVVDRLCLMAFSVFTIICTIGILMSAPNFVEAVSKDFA
Chain of Neuronal acetylcholine receptor; alpha3/beta4 (P30926 whole entry): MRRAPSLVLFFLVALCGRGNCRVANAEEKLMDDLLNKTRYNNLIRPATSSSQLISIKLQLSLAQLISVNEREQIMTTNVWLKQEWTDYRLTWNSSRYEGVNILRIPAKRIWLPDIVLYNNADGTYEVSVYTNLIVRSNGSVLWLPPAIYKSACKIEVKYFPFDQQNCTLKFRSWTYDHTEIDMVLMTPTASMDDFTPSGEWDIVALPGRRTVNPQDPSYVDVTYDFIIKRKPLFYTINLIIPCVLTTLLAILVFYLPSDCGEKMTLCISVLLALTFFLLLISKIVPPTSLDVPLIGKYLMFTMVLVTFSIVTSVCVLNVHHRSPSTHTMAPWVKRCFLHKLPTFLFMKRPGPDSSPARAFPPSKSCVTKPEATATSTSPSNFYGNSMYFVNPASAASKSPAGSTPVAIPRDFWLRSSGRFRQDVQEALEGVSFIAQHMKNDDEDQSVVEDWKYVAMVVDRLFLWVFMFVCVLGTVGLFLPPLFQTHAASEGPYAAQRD
Chain of Neuronal acetylcholine receptor; alpha3/beta4 (P32297 whole entry): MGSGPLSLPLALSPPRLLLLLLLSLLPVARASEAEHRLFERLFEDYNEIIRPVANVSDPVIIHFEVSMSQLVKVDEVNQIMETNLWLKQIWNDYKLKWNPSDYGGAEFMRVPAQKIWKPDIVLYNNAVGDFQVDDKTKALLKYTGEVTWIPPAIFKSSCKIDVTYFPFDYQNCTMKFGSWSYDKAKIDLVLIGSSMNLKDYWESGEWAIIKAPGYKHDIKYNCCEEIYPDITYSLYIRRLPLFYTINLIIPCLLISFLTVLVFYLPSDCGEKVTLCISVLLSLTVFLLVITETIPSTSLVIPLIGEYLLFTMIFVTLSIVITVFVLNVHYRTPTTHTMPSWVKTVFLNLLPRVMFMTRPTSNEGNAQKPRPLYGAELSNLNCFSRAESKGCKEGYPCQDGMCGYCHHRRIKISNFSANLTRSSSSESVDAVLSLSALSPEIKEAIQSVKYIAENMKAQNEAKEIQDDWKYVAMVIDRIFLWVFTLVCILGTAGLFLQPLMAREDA

For orientation: Ki means the equilibrium dissociation constant of an inhibitor or competing ligand from its target. High values mean weaker binding, low ones tighter binding. For the compound `O=c1cccc2n1CC1CNCC21` (racemic) [CYFUSINE], the Ki in test [1] is over 0.5 µM; in test [2] it was over 0.5 µM; in test [3], 0.016 µM.

On to `O=c1cccc2n1C[C@@H]1CNC[C@H]2C1` [CYTISINICLINE], for which the Ki worked out at 1.56 µM in test [1], 5.82 µM in test [2] and 0.00043 µM in test [3].

Consider `O=c1cccc2n1CC13CNCC21C3` (racemic) [CYCLOPROPYLCYFUSINE], for which the results for the Ki in test [1], in test [2] and in test [3] were over 0.5 µM, over 0.5 µM and 0.144 µM, respectively.
